The values that follow come from patent US20090076142A1, “USE OF THE IRRITATING PRINCIPAL OLEOCANTHAL IN OLIVE OIL, AS WELL AS STRUCTURALLY AND FUNCTIONALLY SIMILAR COMPOUNDS” (The Trustees of the University of Pennsylvania, priority 2005, published 2009).

The target of assay [1] is T1, soybean 15-lipoxygenase (Glycine max, UniProt P08170).
T1 construct: purchased Cayman Chemicals
T1 sequence (P08170 1-839): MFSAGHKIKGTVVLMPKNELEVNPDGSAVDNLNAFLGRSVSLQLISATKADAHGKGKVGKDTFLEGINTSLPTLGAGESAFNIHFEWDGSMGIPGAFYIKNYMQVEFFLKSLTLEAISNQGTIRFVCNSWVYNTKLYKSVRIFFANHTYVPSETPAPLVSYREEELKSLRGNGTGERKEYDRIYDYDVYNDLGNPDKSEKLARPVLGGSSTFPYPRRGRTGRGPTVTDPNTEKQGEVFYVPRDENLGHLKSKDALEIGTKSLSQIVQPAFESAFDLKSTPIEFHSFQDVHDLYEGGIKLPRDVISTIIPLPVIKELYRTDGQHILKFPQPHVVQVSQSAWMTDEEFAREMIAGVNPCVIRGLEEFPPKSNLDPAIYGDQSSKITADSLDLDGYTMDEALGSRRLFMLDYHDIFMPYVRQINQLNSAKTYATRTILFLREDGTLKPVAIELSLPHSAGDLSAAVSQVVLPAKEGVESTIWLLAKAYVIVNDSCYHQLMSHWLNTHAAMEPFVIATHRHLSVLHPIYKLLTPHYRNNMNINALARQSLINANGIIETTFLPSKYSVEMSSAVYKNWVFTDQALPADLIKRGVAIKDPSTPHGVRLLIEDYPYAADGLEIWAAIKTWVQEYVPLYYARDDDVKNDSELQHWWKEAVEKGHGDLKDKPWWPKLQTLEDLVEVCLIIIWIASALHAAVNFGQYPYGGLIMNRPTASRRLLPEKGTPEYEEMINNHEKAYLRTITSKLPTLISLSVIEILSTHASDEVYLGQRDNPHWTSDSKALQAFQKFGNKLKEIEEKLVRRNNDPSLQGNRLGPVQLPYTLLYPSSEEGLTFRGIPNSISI
Briefly: 15-lipoxygenase inhibition assay (Cayman Chemicals kit). The format is biochemical. Conditions: mean ± SEM, three independent experiments, read-out: Percent inhibition of 15-LO.

In assay [2] the target is T2, human recombinant COX-2 (Homo sapiens, UniProt P35354).
T2 construct: purchased Cayman Chemicals
T2 sequence (P35354 18-604): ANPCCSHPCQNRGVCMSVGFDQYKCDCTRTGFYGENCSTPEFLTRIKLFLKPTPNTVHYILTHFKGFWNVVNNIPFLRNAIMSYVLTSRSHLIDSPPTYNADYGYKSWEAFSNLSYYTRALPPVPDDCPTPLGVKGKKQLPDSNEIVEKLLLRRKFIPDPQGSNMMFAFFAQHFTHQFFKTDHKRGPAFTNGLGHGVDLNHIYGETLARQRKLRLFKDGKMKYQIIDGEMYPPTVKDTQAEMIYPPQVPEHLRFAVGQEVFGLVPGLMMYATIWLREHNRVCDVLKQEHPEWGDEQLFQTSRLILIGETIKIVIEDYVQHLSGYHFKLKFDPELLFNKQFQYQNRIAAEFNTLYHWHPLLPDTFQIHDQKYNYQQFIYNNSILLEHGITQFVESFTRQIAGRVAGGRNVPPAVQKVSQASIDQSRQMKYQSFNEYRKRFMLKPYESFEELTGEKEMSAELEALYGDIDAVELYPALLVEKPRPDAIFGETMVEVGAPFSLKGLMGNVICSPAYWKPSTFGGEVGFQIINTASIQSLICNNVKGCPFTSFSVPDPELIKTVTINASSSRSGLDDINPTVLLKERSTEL
Briefly: Cyclooxygenase COX-2 inhibition assay (Cayman Chemicals kit). The class given is biochemical. Conditions: for inhibition at 7 µM / inhibition at 25 µM / inhibition at 100 µM: mean ± SEM, three independent experiments, read-out: Percent inhibition of COX-2; for IC50: least squares regression analysis of inhibition vs. concentration, read-out: calculated IC50 for COX-2.

The target in assay [3] is T3, ovine COX-1 (Ovis aries, UniProt P05979).
T3 construct: purchased Cayman Chemicals
T3 sequence (P05979 25-600): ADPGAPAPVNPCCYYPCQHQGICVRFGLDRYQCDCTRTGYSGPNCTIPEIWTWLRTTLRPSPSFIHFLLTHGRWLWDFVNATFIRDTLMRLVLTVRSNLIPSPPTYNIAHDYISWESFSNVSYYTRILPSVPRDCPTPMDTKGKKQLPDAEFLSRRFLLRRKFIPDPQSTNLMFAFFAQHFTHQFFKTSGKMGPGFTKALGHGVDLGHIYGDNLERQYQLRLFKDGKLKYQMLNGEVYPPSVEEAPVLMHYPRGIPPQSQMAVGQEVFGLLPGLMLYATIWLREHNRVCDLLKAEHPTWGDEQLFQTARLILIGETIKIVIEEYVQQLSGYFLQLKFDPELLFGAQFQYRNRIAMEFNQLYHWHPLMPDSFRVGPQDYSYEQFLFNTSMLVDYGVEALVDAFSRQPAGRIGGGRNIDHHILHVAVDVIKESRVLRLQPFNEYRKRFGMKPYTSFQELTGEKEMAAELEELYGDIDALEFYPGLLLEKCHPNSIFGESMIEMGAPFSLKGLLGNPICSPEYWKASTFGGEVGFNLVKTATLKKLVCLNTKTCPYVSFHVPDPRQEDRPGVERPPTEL
Briefly: Cyclooxygenase COX-1 inhibition assay (Cayman Chemicals kit). To be noted: for inhibition at 7 µM / inhibition at 25 µM / inhibition at 100 µM: mean ± SEM, three independent experiments, read-out: Percent inhibition of COX-1; for IC50: least squares regression analysis of inhibition vs. concentration, read-out: calculated IC50 for COX-1. The class given is biochemical.

Assay [4] has as its system throat irritation. Briefly: Throat irritation sensory test, two-alternative forced-choice, compound in corn oil. The format is in vivo, human. As for the experimental part: Testing was double-blind and each was exposed to three sets of two samples, one of which was added synthesized oleocanthal and the other served as the blank control. The task was to indicated which of the pair was more irritating. […] Importantly, the effect was dose dependent (FIG. 2 open triangles, dashed line). Ten subjects were tested with non-irritating commercial corn oils presented neat and mixed with either synthesized (−)-oleocanthal or the bitter agent sucrose octaacetate (SOA) (Sigma-Aldrich). […] (−)-Oleocanthal was tested at the highest concentration identified in the ten rated oils, 200 μg/ml, and at one half and whole log steps more dilute 63.25 and 20 μg/ml. SOA was added to the corn oil (4×10^−4, 1×10^−4, 5×10^−5 M) to intensity match the irritation of the three levels of (−)-oleocanthal. Subjects participated in two-alternative forced-choice (2AFC) trials (four trials at every concentration for each subject) and in intensity ratings sessions (four ratings per each oil). For the 2AFC trials subjects were presented with two 3.0 ml corn oil samples with matching intensities of SOA and (−)-oleocanthal in ascending order, and were required to sample oils as described above. While blind to stimulus position, subjects were asked two questions on each trial, “Which of the two oils was more irritating in the throat?” and “Which one was more bitter?” At the 20 μg/ml & 5×10^−5 M level most subjects reported on some trials that the same oil was both the more irritating and the more bitter of the two. […] Subjects performed at chance when selecting among two unadulterated corn oils, when the correct choice was randomly assigned prior to testing. […] The other two concentrations were correct 39/40 and 40/40 trials. For the intensity rating trials subjects were presented with all eight oils in ascending order, counterbalanced for stimulus order and asked to rate the throat irritation and bitterness of every oil on a general labeled magnitude scale.

With `O=C(O)/C=C/c1ccc(O)c(O)c1` [Caffeic Acid, caffeic acid, reference compound], in assay [1], the inhibition (usually the change of the read-out against control, counted positive when it falls) at 7 µM was 19.8 ± 1.3% and the inhibition at 25 µM was determined as 25.2 ± 2.2%.
For the molecule `CC=C(C=O)C(CC=O)CC(=O)OCCc1ccc(O)cc1` (single isomer, unassigned) [Oleocanthal (+)], in assay [2], the inhibition at 7 µM is 6.1 ± 4.2%, the inhibition at 25 µM worked out at 41.3 ± 15.9%, the inhibition at 100 µM is 69.6 ± 3.9% and the IC50 (usually the midpoint of a concentration-inhibition curve) is 40.5 µM. In addition, in assay [1], the inhibition at 7 µM was 0%, the inhibition at 25 µM worked out at 0.7 ± 1% and the inhibition at 100 µM stood at 3.5 ± 5.5%. In assay [3], the inhibition at 7 µM came out at 24.6 ± 7.5%, the inhibition at 25 µM was 54.5 ± 4.6%, the inhibition at 100 µM was found to be 68 ± 15.2% and the IC50 was 27.9 µM.
Take `COc1ccc2c(c1)c(CC(=O)O)c(C)n2C(=O)c1ccc(Cl)cc1` [Indomethacin, reference compound]: in assay [1], the inhibition at 7 µM turned out to be 0.5 ± 0.1% and the inhibition at 25 µM turned out to be 0.1 ± 0.9%.
Regarding `C/C=C(/C=O)[C@@H](CC=O)CC(=O)OCCc1ccc(O)cc1` [Oleocanthal (−), 2-(4-hydroxyphenyl)ethyl, 4-formyl-3-(2-oxoethyl)-4-hexenoic acid ester], in assay [4] (20 μg/ml in corn oil vs SOA, ten subjects), the “correct 2AFC trials (more irritating in the throat)” value was 24 out of 40. For the same molecule, the “detection threshold level of throat irritation in corn oil” value in assay [4] (corn oil, ten subjects) was roughly 20 µg/mL. Also, the “throat irritation compared with oleocanthal isolated from premium olive oil” value in assay [4] (synthetic compound in corn oil) was “identical to oleocanthal isolated from premium olive oil”. Also, the “correct identification of the more irritating sample (2AFC)” value in assay [4] (three evaluators, three presentations, corn oil, approximately twice the concentration found in Falconaro olive oil, p<0.01) was 9 of 9. In addition, in assay [2], the inhibition at 7 µM came out at 14.5 ± 2.3%, the inhibition at 25 µM was 56.6 ± 9.5%, the inhibition at 100 µM was determined as 70.9 ± 8.6% and the IC50 was 29.4 µM. Further, in assay [1], the inhibition at 7 µM is 0%, the inhibition at 25 µM is 0% and the inhibition at 100 µM amounted to 0.4 ± 0.8%. Besides, in assay [3], the inhibition at 7 µM amounted to 24.6 ± 7.3%, the inhibition at 25 µM was found to be 56.1 ± 3.2%, the inhibition at 100 µM amounted to 83.5 ± 3.5% and the IC50 was 21.4 µM.
